# Laboratory results as given in ChEMBL document CHEMBL1201862, “PubChem BioAssay data set” (2004).
#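 Results reflect a 48-hour exposure of cells in 96-well plates to compound at five concentrations. At the GI50, growth is halved.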 Activity calls are given as the source filed them. Rule as the data show it: active = GI50 up to about 1.1 µM and inactive = higher.
# Assays:
# Experiment in all cases: NCI tumour cell line growth inhibition, 48 h
# 786-0 = system: 786-0
# A498 = system: A498
# A549 = system: A549
# ACHN = system: ACHN
# CAKI-1 = system: CAKI-1
# CCRF-CEM = system: CCRF-CEM
# COLO 205 = system: COLO 205
# DU-145 = system: DU-145
# EKVX = system: EKVX
# HCC 2998 = system: HCC 2998
# HCT-116 = system: HCT-116
# HCT-15 = system: HCT-15
# HL-60 = system: HL-60
# HOP-62 = system: HOP-62
# HOP-92 = system: HOP-92
# HT-29 = system: HT-29
# Hs-578T = system: Hs-578T
# IGROV-1 = system: IGROV-1
# K562 = system: K562
# KM12 = system: KM12
# LOX IMVI = system: LOX IMVI
# M14 = system: M14
# MCF7 = system: MCF7
# MDA-MB-231 = system: MDA-MB-231
# MDA-MB-435 = system: MDA-MB-435
# MDA-N = system: MDA-N
# MOLT-4 = system: MOLT-4
# Malme-3M = system: Malme-3M
# NCI-H226 = system: NCI-H226
# NCI-H23 = system: NCI-H23
# NCI-H460 = system: NCI-H460
# NCI-H522 = system: NCI-H522
# NCI/ADR-RES = system: NCI/ADR-RES
# OVCAR-3 = system: OVCAR-3
# OVCAR-4 = system: OVCAR-4
# OVCAR-5 = system: OVCAR-5
# OVCAR-8 = system: OVCAR-8
# PC-3 = system: PC-3
# RPMI-8226 = system: RPMI-8226
# RXF 393 = system: RXF 393
# SF-268 = system: SF-268
# SF-295 = system: SF-295
# SF-539 = system: SF-539
# SK-MEL-28 = system: SK-MEL-28
# SK-MEL-5 = system: SK-MEL-5
# SK-OV-3 = system: SK-OV-3
# SN12C = system: SN12C
# SNB-19 = system: SNB-19
# SNB-75 = system: SNB-75
# SR = system: SR
# SW-620 = system: SW-620
# TK-10 = system: TK-10
# U-251 = system: U-251
# UACC-257 = system: UACC-257
# UACC-62 = system: UACC-62
# UO-31 = system: UO-31
# SK-MEL-2 = system: SK-MEL-2
smiles,measurement,setting,value
COC(=O)C1(C(=O)OC)CC(=O)c2c(OC(=O)c3cccc(OC)c3C#N)ccc(OC(=O)c3cccc(OC)c3C#N)c2C1,GI50,786-0,> 100 µM (inactive)
same,GI50,A498,31.3 µM (inactive)
same,GI50,A549,> 100 µM (inactive)
same,GI50,ACHN,> 100 µM (inactive)
same,GI50,CAKI-1,> 100 µM (inactive)
same,GI50,CCRF-CEM,> 100 µM (inactive)
same,GI50,COLO 205,> 100 µM (inactive)
same,GI50,DU-145,> 100 µM (inactive)
same,GI50,EKVX,> 100 µM (inactive)
same,GI50,HCC 2998,> 100 µM (inactive)
same,GI50,HCT-116,> 100 µM (inactive)
same,GI50,HCT-15,> 100 µM
same,GI50,HL-60,> 100 µM (inactive)
same,GI50,HOP-62,> 100 µM (inactive)
same,GI50,HOP-92,83.8 µM (inactive)
same,GI50,HT-29,> 100 µM (inactive)
same,GI50,Hs-578T,> 100 µM (inactive)
same,GI50,IGROV-1,> 100 µM (inactive)
same,GI50,K562,> 100 µM (inactive)
same,GI50,KM12,> 100 µM (inactive)
same,GI50,LOX IMVI,> 100 µM (inactive)
same,GI50,M14,> 100 µM (inactive)
same,GI50,MCF7,> 100 µM (inactive)
same,GI50,MDA-MB-231,> 100 µM (inactive)
same,GI50,MDA-MB-435,> 100 µM (inactive)
same,GI50,MDA-N,> 100 µM (inactive)
same,GI50,MOLT-4,> 100 µM (inactive)
same,GI50,Malme-3M,> 100 µM (inactive)
same,GI50,NCI-H226,> 100 µM (inactive)
same,GI50,NCI-H23,> 100 µM (inactive)
same,GI50,NCI-H460,> 100 µM (inactive)
same,GI50,NCI-H522,> 100 µM (inactive)
same,GI50,NCI/ADR-RES,> 100 µM (inactive)
same,GI50,OVCAR-3,> 100 µM (inactive)
same,GI50,OVCAR-4,> 100 µM (inactive)
same,GI50,OVCAR-5,> 100 µM (inactive)
same,GI50,OVCAR-8,> 100 µM (inactive)
same,GI50,PC-3,> 100 µM (inactive)
same,GI50,RPMI-8226,39.1 µM (inactive)
same,GI50,RXF 393,> 100 µM (inactive)
same,GI50,SF-268,> 100 µM (inactive)
same,GI50,SF-295,> 100 µM (inactive)
same,GI50,SF-539,> 100 µM (inactive)
same,GI50,SK-MEL-28,> 100 µM (inactive)
same,GI50,SK-MEL-5,> 100 µM (inactive)
same,GI50,SK-OV-3,> 100 µM (inactive)
same,GI50,SN12C,> 100 µM (inactive)
same,GI50,SNB-19,> 100 µM (inactive)
same,GI50,SNB-75,> 100 µM (inactive)
same,GI50,SR,26.9 µM (inactive)
same,GI50,SW-620,> 100 µM (inactive)
same,GI50,TK-10,> 100 µM (inactive)
same,GI50,U-251,> 100 µM (inactive)
same,GI50,UACC-257,> 100 µM (inactive)
same,GI50,UACC-62,> 100 µM (inactive)
same,GI50,UO-31,59.2 µM (inactive)
C=C/C(C)=C\CC1[C@](C)(O)CC[C@H]2C(C)(C)C(=O)CC[C@]12C (stereo not given in full),GI50,786-0,> 100 µM (inactive)
same,GI50,A498,> 100 µM (inactive)
same,GI50,A549,62.7 µM (inactive)
same,GI50,ACHN,> 100 µM (inactive)
same,GI50,CAKI-1,> 100 µM (inactive)
same,GI50,CCRF-CEM,46.6 µM (inactive)
same,GI50,COLO 205,92.3 µM (inactive)
same,GI50,DU-145,> 100 µM (inactive)
same,GI50,EKVX,> 100 µM (inactive)
same,GI50,HCT-116,47.5 µM (inactive)
same,GI50,HCT-15,51.9 µM
same,GI50,HL-60,12.1 µM (inactive)
same,GI50,HOP-92,> 100 µM (inactive)
same,GI50,HT-29,47.6 µM (inactive)
same,GI50,Hs-578T,> 100 µM (inactive)
same,GI50,IGROV-1,> 100 µM (inactive)
same,GI50,K562,57.7 µM (inactive)
same,GI50,KM12,85.5 µM (inactive)
same,GI50,LOX IMVI,93.8 µM (inactive)
same,GI50,M14,39.4 µM (inactive)
same,GI50,MCF7,60.4 µM (inactive)
same,GI50,MDA-MB-231,> 100 µM (inactive)
same,GI50,MDA-MB-435,70.5 µM (inactive)
same,GI50,MDA-N,96.4 µM (inactive)
same,GI50,MOLT-4,19.1 µM (inactive)
same,GI50,Malme-3M,> 100 µM (inactive)
same,GI50,NCI-H226,> 100 µM (inactive)
same,GI50,NCI-H23,40.6 µM (inactive)
same,GI50,NCI-H460,50.6 µM (inactive)
same,GI50,NCI-H522,62.7 µM (inactive)
same,GI50,NCI/ADR-RES,60 µM (inactive)
same,GI50,OVCAR-3,41.7 µM (inactive)
same,GI50,OVCAR-4,54.3 µM (inactive)
same,GI50,OVCAR-5,> 100 µM (inactive)
same,GI50,OVCAR-8,> 100 µM (inactive)
same,GI50,PC-3,34.6 µM (inactive)
same,GI50,RPMI-8226,29 µM (inactive)
same,GI50,RXF 393,32.3 µM (inactive)
same,GI50,SF-268,> 100 µM (inactive)
same,GI50,SF-295,81.7 µM (inactive)
same,GI50,SF-539,> 100 µM (inactive)
same,GI50,SK-MEL-28,> 100 µM (inactive)
same,GI50,SK-MEL-2,> 100 µM (inactive)
same,GI50,SK-MEL-5,44.4 µM (inactive)
same,GI50,SN12C,> 100 µM (inactive)
same,GI50,SNB-19,> 100 µM (inactive)
same,GI50,SNB-75,> 100 µM (inactive)
same,GI50,SR,24.6 µM (inactive)
same,GI50,SW-620,> 100 µM (inactive)
same,GI50,TK-10,> 100 µM (inactive)
same,GI50,U-251,> 100 µM (inactive)
same,GI50,UACC-257,64.4 µM (inactive)
same,GI50,UACC-62,> 100 µM (inactive)
same,GI50,UO-31,23.9 µM (inactive)
